In PMC12373499 (Nature Metabolism, 2025):
Values joined by “and” are separate entries in the source; they are usually repeats but may differ in a detail not shown here. Identical values can stand only once.

T1: mGIPR (Mus musculus, UniProt Q0P543)
T1 construct: expressed in transfected cells; host or cells: AD293 cells, transient transfection (Lipofectamine 2000)
T1 sequence (Q0P543 19-460): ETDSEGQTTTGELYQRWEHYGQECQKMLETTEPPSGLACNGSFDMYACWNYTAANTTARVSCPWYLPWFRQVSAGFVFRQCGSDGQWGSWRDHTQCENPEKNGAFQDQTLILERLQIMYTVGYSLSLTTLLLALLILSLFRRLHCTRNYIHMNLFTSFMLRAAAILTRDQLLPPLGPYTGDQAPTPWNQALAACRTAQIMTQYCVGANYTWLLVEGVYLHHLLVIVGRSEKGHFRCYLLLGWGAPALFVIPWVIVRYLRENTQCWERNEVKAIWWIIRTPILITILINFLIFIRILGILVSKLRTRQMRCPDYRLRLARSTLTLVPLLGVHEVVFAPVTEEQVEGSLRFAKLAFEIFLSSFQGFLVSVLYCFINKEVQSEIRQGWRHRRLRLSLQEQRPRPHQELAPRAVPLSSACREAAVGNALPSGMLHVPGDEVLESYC

T2: hGIPR (Homo sapiens, UniProt P48546)
T2 construct: expressed in transfected cells; host or cells: AD293 cells, transient transfection (Lipofectamine 2000)
T2 sequence (P48546 22-466): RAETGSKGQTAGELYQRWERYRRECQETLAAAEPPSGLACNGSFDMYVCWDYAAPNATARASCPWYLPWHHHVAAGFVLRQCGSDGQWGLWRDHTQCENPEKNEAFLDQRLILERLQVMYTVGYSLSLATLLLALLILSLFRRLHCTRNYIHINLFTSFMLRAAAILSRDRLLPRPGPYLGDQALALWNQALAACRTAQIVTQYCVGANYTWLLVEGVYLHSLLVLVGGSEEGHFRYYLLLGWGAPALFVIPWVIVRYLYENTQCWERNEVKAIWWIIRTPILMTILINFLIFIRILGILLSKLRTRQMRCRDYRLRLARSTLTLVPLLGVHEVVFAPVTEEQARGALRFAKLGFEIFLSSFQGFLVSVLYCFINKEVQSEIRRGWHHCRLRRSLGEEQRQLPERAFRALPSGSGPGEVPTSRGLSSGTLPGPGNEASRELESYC

T3: mGLP1R (Mus musculus, UniProt O35659)
T3 construct: expressed in transfected cells; host or cells: AD293 cells, transient transfection (Lipofectamine 2000)
T3 sequence (O35659 22-463): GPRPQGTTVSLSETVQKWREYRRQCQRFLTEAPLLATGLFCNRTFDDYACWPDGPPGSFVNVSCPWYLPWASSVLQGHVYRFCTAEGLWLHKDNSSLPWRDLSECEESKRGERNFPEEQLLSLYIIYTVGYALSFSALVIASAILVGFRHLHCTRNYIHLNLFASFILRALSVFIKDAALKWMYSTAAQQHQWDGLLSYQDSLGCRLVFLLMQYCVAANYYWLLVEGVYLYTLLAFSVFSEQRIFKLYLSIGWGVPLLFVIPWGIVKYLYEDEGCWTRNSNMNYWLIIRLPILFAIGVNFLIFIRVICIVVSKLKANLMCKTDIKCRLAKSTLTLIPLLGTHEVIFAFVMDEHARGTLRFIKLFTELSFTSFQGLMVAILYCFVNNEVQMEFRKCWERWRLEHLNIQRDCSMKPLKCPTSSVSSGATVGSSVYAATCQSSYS

T4: GIP(1-42) (Homo sapiens, UniProt P09681)
T4 chain: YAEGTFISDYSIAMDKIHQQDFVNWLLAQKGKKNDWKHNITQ

B1: GIPR (protein)
chain: T2 sequence (P48546 22-466)

Experiments:
[1] = biological target: T1, mGIPR; assay: HTRF cAMP assay in transiently transfected AD293 cells; format: cell-based; settings: cAMP, AD293 cells, 30 min 37 °C, n = 4 independent repeats; Extended Data Table 1; read-out: mGIPR EC50 best-fit
Method: (§1) AD293 cells (RRID:CVCL_9804) were transiently transfected 24 h before the assay in six-well plates with plasmids encoding wild-type hGLP1R, mGLP1R, hGIPR or mGIPR using Lipofectamine 2000. AD293 cells were authenticated at source using STR profiling. Cells were detached and treated with a range of agonist concentrations in serum-free DMEM + 0.1% BSA for 30 min at 37 °C in 96-well plates, followed by the addition of lysis buffer 2 (Cisbio) at a 1:2 ratio. Lysates were further diluted 1:10 to avoid spectral interference from the higher concentrations of fluorescent ligands in the HTRF assay, and the concentration of cAMP was determined after the addition of cAMP Dynamic detection reagents (Cisbio).

[2] = biological target: T2, hGIPR; assay: as above; format: cell-based; settings: 30 min 37 °C, n = 4 independent repeats, Extended Data Table 1, read-out: hGIPR EC50 best-fit
Method: as §1

[3] = biological target: T3, mGLP1R; assay: as above; format: cell-based; settings: 30 min 37 °C, n = 4 independent repeats, Extended Data Table 1, read-out: mGLP1R EC50 best-fit
[4] = biological target: T4, GIP(1-42); assay: competition

Molecule	EC50 [1]	EC50 [2]	EC50 [3]	Ki [4]
CC[C@H](C)[C@H](NC(=O)[C@H](CC(C)C)NC(=O)[C@H](Cc1c[nH]c2ccccc12)NC(=O)[C@H](CCC(N)=O)NC(=O)[C@@H](NC(=O)[C@H](Cc1ccccc1)NC(=O)[C@H](C)NC(=O)[C@H](CCCCNC(=O)COCCOCCNC(=O)COCCOCCNC(=O)CC[C@H](NC(=O)CCCCCCCCCCCCCCCCCCC(=O)O)C(=O)O)NC(=O)[C@H](CCC(N)=O)NC(=O)[C@H](C)NC(=O)[C@@H](NC(=O)[C@H](CCCCN)NC(=O)[C@H](CC(=O)O)NC(=O)[C@H](CC(C)C)NC(=O)C(C)(C)NC(=O)[C@@H](NC(=O)[C@H](CO)NC(=O)[C@H](Cc1ccc(O)cc1)NC(=O)[C@H](CC(=O)O)NC(=O)[C@H](CO)NC(=O)[C@@H](NC(=O)[C@H](Cc1ccccc1)NC(=O)[C@@H](NC(=O)CNC(=O)[C@H](CCC(=O)O)NC(=O)C(C)(C)NC(=O)[C@@H](N)Cc1ccc(O)cc1)[C@@H](C)O)[C@@H](C)O)[C@@H](C)CC)[C@@H](C)CC)C(C)C)C(=O)N[C@@H](C)C(=O)NCC(=O)NCC(=O)N1CCC[C@H]1C(=O)N[C@@H](CO)C(=O)N[C@@H](CO)C(=O)NCC(=O)N[C@@H](C)C(=O)N1CCC[C@H]1C(=O)N1CCC[C@H]1C(=O)N1CCC[C@H]1C(=O)N[C@@H](CO)C(N)=O [tirzepatide]	112 nM	0.641 nM	29.4 nM	–
B1	–	–	–	13.9 nM and 9.38 nM
